Data published in patent publication US12427144B2, “Compounds and methods for the targeted degradation of androgen receptor” (Arvinas Operations, Inc., priority 2019, dated 2025).

Target: T1, Androgen Receptor (AR) (Homo sapiens, UniProt P10275)
T1 construct: endogenous in cells; host or cells: VCaP
T1 sequence (P10275 1-920): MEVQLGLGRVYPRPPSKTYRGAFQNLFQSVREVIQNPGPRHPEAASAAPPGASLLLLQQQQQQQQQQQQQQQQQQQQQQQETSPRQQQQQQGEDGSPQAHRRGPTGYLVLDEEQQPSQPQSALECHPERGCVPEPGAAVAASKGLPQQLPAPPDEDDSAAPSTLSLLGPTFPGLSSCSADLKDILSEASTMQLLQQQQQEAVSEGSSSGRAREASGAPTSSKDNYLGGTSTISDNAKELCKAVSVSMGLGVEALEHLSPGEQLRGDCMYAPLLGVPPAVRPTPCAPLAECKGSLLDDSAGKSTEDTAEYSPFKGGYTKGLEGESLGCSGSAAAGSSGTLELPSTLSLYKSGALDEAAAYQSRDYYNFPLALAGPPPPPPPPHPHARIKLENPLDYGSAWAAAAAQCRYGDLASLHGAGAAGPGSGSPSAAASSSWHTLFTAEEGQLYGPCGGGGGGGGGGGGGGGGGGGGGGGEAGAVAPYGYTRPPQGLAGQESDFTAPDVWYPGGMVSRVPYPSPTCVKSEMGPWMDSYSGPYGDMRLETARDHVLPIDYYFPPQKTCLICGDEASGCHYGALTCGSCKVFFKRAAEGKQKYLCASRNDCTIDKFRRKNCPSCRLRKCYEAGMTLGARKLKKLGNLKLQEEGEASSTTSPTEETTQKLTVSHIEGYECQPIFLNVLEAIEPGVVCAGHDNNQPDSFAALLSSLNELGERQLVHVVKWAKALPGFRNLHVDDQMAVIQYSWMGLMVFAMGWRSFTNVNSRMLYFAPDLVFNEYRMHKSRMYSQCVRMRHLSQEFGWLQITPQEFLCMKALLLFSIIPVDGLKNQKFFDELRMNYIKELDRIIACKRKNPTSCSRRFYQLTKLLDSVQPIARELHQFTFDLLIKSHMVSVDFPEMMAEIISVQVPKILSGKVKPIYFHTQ
Assay: AR immunofluorescence staining, high content imager, VCaP cells
Type: cell-based
Details: for DC50: AR degradation by immunofluorescence; for Dmax: maximal AR degradation
Experimental: AR Immunofluorescence Staining of Cells for the High Content Imager was performed as follows: Following treatment of the cells with compound (using the central 60 wells of a 96-well plate), media was removed by aspiration, followed by addition of 50 μL per well of 4% paraformaldehyde (PFA) in PBS supplemented with 2 mM MgCl2 and 2 mM CaCl2. Fixed cells were incubated at RT for 15 minutes. For particularly low adherence cell lines (e.g., VCaP), a 2× solution of 8% PFA was added directly to wells instead. Cells were washed once with 200 μL PBS/well. To permeabilize cells 50 μL/well of 0.1% Triton X-100 in PBS was added and incubated for 5 minutes. Cells were washed once with 200 μL PBSS/well. 100 μL/well of Licor Odyssey Blocking Buffer was added for 1 hour at 20° C. Wells were aspirated and AR antibody (1:1000 in Licor Odyssey blocking buffer; 50 μL/well; CST 5153s) was added. Plates were incubated overnight at 4° C. Plates were washed 3 times with 200 EL PBS/well. The appropriate secondary antibody was added (50 μL/well; diluted in Licor Odyssey blocking buffer) and incubated for 1 hour at RT in the dark as prepared below using Anti-rabbit FITC (1:5000; […]) and Phalloidin-Alexafluor 648 (1:500; […]). Cells were washed once with 200 μL PBS/well. 50 μL DAPI or Hoechst 33342 diluted 1:1000 in Licor Odyssey blocking buffer was added to the wells. Cells were washed 3 times with 200 μL PBS/well. The plates were covered with a clear plastic sealer and refrigerated in the dark until ready to analyze. The cells were analyzed using a Molecular Devices IXM high content imager and analyzed using Molecular Devices metaXpress software suite.

SMILES | DC50 [nM] | Dmax [%]
COc1cc(O[C@H]2C(C)(C)[C@H](NC(=O)c3ccc(N4CCO[C@H](CN(C(C)C)[C@H]5C[C@@H](Oc6ccc(C(=O)N[C@H]7CCC(=O)NC7=O)c(F)c6)C5)C4)cc3)C2(C)C)ccc1C#N [Compound 43, 4-[(2R)-2-([isopropyl[(1r,3r)-3-(4-[[(3S)-2,6-dioxopiperidin-3-yl]carbamoyl]-3-fluorophenoxy)cyclobutyl]amino]methyl)morpholin-4-yl]-N-[(1r,3r)-3-(4-cyano-3-methoxyphenoxy)-2,2,4,4-tetramethylcyclobutyl]benzamide] | < 1 | ≥ 70
COc1cc(O[C@H]2C(C)(C)[C@H](NC(=O)c3ccc(N4CCO[C@@H](CN(C(C)C)[C@H]5C[C@H](Oc6ccc(C(=O)N[C@H]7CCC(=O)NC7=O)c(F)c6)C5)C4)cc3)C2(C)C)ccc1C#N [Compound 44, 4-[(2S)-2-([isopropyl[(1R,3R)-3-(4-[[(3S)-2,6-dioxopiperidin-3-yl]carbamoyl]-3-fluorophenoxy)cyclobutyl]amino]methyl)morpholin-4-yl]-N-[(1R,3R)-3-(4-cyano-3-methoxyphenoxy)-2,2,4,4-tetramethylcyclobutyl]benzamide] | < 1 | ≥ 70
COCCN(C[C@@H]1CN(c2ccc(C(=O)N[C@H]3C(C)(C)[C@H](Oc4cc(C)c(C#N)c(C)c4)C3(C)C)cc2)CCO1)[C@H]1C[C@@H](Oc2ccc(C(=O)N[C@H]3CCC(=O)NC3=O)c(F)c2)C1 [Compound 45, 4-[(2R)-2-{[(2-methoxyethyl)[(1r,3r)-3-(4-{[(3S)-2,6-dioxopiperidin-3-yl]carbamoyl}-3-fluorophenoxy)cyclobutyl]amino]methyl}morpholin-4-yl]-N-[(1r,3r)-3-(4-cyano-3,5-dimethylphenoxy)-2,2,4,4-tetramethylcyclobutyl]benzamide] | < 1 | ≥ 70
Cc1cc(O[C@H]2C(C)(C)[C@H](NC(=O)c3ccc(N4CCC(CN5CCN(c6ccc(C(=O)N[C@H]7CCC(=O)NC7=O)cn6)CC5)CC4)cc3)C2(C)C)cc(C)c1C#N [Compound 46] | < 1 | ≥ 70
Cc1cc(O[C@H]2C(C)(C)[C@H](NC(=O)c3ccc(N4CCO[C@H](CN(C(C)C)[C@H]5C[C@@H](Oc6ccc(C(=O)N[C@H]7CCC(=O)NC7=O)c(F)c6)C5)C4)cc3)C2(C)C)cc(C)c1C#N [Compound 47, 4-[(2R)-2-{[(propan-2-yl)[(1r,3r)-3-(4-{[(3S)-2,6-dioxopiperidin-3-yl]carbamoyl}-3-fluorophenoxy)cyclobutyl]amino]methyl}morpholin-4-yl]-N-[(1r,3r)-3-(4-cyano-3,5-dimethylphenoxy)-2,2,4,4-tetramethylcyclobutyl]benzamide] | < 1 | ≥ 70
Cc1cc(O[C@H]2C(C)(C)[C@H](NC(=O)c3ccc(N4CCO[C@H](CN5CCN(c6ccc(C(=O)N[C@H]7CCC(=O)NC7=O)c(F)c6)CC5)C4)cc3)C2(C)C)cc(C)c1C#N [Compound 48, N-[(3S)-2,6-dioxopiperidin-3-yl]-2-fluoro-4-(4-{[(2R)-4-(4-{[(1r,3r)-3-(4-cyano-3,5-dimethylphenoxy)-2,2,4,4-tetramethylcyclobutyl]carbamoyl}phenyl)morpholin-2-yl]methyl}piperazin-1-yl)benzamide] | < 1 | ≥ 70
COCCN(C[C@H]1CN(c2ccc(C(=O)N[C@H]3C(C)(C)[C@@H](Oc4ccc(C#N)c(OC)c4)C3(C)C)cc2)CCO1)[C@H]1C[C@H](Oc2ccc(C(=O)N[C@@H]3CCC(=O)NC3=O)c(F)c2)C1 [Compound 50, 4-[(2S)-2-{[(2-methoxyethyl)[(1r,3r)-3-(4-{[(3R)-2,6-dioxopiperidin-3-yl]carbamoyl}-3-fluorophenoxy)cyclobutyl]amino]methyl}morpholin-4-yl]-N-[(1r,3r)-3-(4-cyano-3-methoxyphenoxy)-2,2,4,4-tetramethylcyclobutyl]benzamide] | < 1 | ≥ 70
COCCN(C[C@H]1CN(c2ccc(C(=O)N[C@H]3C(C)(C)[C@@H](Oc4cc(C)c(C#N)c(C)c4)C3(C)C)cc2)CCO1)[C@H]1C[C@H](Oc2ccc(C(=O)N[C@@H]3CCC(=O)NC3=O)c(F)c2)C1 [Compound 51, 4-[(2S)-2-{[(2-methoxyethyl)[(1r,3r)-3-(4-{[(3R)-2,6-dioxopiperidin-3-yl]carbamoyl}-3-fluorophenoxy)cyclobutyl]amino]methyl}morpholin-4-yl]-N-[(1r,3r)-3-(4-cyano-3,5-dimethylphenoxy)-2,2,4,4-tetramethylcyclobutyl]benzamide] | < 1 | ≥ 70
Cc1cc(O[C@H]2C(C)(C)[C@H](NC(=O)c3ccc(N4CCO[C@@H](CN5CCN(c6ccc(C(=O)N[C@H]7CCC(=O)NC7=O)c(F)c6)CC5)C4)cc3)C2(C)C)cc(C)c1C#N [Compound 52, N-[(3S)-2,6-dioxopiperidin-3-yl]-2-fluoro-4-(4-{[(2S)-4-(4-{[(1r,3r)-3-(4-cyano-3,5-dimethylphenoxy)-2,2,4,4-tetramethylcyclobutyl]carbamoyl}phenyl)morpholin-2-yl]methyl}piperazin-1-yl)benzamide] | < 1 | ≥ 70
COc1cc(O[C@H]2C[C@H](N3CCOC4(CCN(c5ccc(C(=O)N[C@H]6C(C)(C)[C@H](Oc7cc(C)c(C#N)c(C)c7)C6(C)C)cc5)CC4)C3)C2)ccc1C(=O)NC1CCC(=O)NC1=O (stereo partly shown) [Compound 53, N-(2,6-dioxopiperidin-3-yl)-2-methoxy-4-[(1r,3r)-3-[9-(4-{[(1r,3r)-3-(4-cyano-3,5-dimethylphenoxy)-2,2,4,4-tetramethylcyclobutyl]carbamoyl}phenyl)-1-oxa-4,9-diazaspiro[5.5]undecan-4-yl]cyclobutoxy]benzamide] | < 1 | ≥ 70
COc1cc(O[C@H]2C(C)(C)[C@H](NC(=O)c3ccc(N4CCC(O[C@H]5C[C@H](Oc6ccc(C(=O)NC7CCC(=O)NC7=O)c(OC)c6)C5)CC4)cc3)C2(C)C)ccc1C#N (stereo partly shown) [Compound 54, N-[(1r,3r)-3-(4-cyano-3-methoxyphenoxy)-2,2,4,4-tetramethylcyclobutyl]-4-{4-[(1r,3r)-3-{4-[(2,6-dioxopiperidin-3-yl)carbamoyl]-3-methoxyphenoxy}cyclobutoxy]piperidin-1-yl}benzamide] | < 1 | ≥ 70
COc1cc(O[C@H]2C[C@H](OC3CCN(c4ccc(C(=O)N[C@H]5C(C)(C)[C@H](Oc6cc(C)c(C#N)c(C)c6)C5(C)C)cc4)CC3)C2)ccc1C(=O)NC1CCC(=O)NC1=O (stereo partly shown) [Compound 55, N-(2,6-dioxopiperidin-3-yl)-2-methoxy-4-[(1r,3r)-3-{[1-(4-{[(1r,3r)-3-(4-cyano-3,5-dimethylphenoxy)-2,2,4,4-tetramethylcyclobutyl]carbamoyl}phenyl)piperidin-4-yl]oxy}cyclobutoxy]benzamide] | < 1 | ≥ 70
COc1cc(C(=O)NC2CCC(=O)NC2=O)ccc1N1CCN(C[C@H]2CN(c3ccc(C(=O)N[C@H]4C(C)(C)[C@H](Oc5cc(C)c(C#N)c(C)c5)C4(C)C)cc3)CCO2)CC1 (stereo partly drawn) [Compound 56, N-(2,6-dioxopiperidin-3-yl)-3-methoxy-4-(4-{[(2S)-4-(4-{[(1r,3r)-3-(4-cyano-3,5-dimethylphenoxy)-2,2,4,4-tetramethylcyclobutyl]carbamoyl}phenyl)morpholin-2-yl]methyl}piperazin-1-yl)benzamide] | < 1 | ≥ 70
COc1cc(O[C@H]2C(C)(C)[C@H](NC(=O)c3ccc(N4CCO[C@@H](CN5CCN(c6ccc(C(=O)NC7CCC(=O)NC7=O)cc6OC)CC5)C4)cc3)C2(C)C)ccc1C#N (stereo partly drawn) [Compound 57, N-(2,6-dioxopiperidin-3-yl)-3-methoxy-4-(4-{[(2S)-4-(4-{[(1r,3r)-3-(4-cyano-3-methoxyphenoxy)-2,2,4,4-tetramethylcyclobutyl]carbamoyl}phenyl)morpholin-2-yl]methyl}piperazin-1-yl)benzamide] | < 1 | ≥ 70
